Assay [1] relates to poly C (RNA, polymer) C. The experiment in a line: fluorimetric titration. The following applies: Na+ (sodium cacodylate, I = 0.05 M), pH 7.0, 1 µM compound.
The test system of assay [2] is poly (dAdT)2 (DNA, polymer) AT. The experiment in a line: fluorimetric titration, Scatchard (McGhee-von Hippel) fit. The following applies: Na+ (sodium cacodylate, I = 0.05 M), pH 7.0, room temperature, 1 µM compound, n fixed 0.2 per polynucleotide base.
For assay [3], the system named is poly A (RNA, polymer) A. The description is as above. The following applies: Na+ (sodium cacodylate, I = 0.05 M), pH 7.0, 1 µM compound, n fixed 0.5 per polynucleotide base.
The test system of assay [4] is poly U (RNA, polymer) U. The description is as above. The settings on record: Na+ (sodium cacodylate, I = 0.05 M), pH 7.0, 1 µM compound, n fixed 0.5 per polynucleotide base.
Assay [5] has as its system poly A-poly U (RNA, polymer) A/U. The description is as above. The following applies: Na+ (sodium cacodylate, I = 0.05 M), pH 7.0, room temperature, 1 µM compound, n fixed 0.2 per polynucleotide base.
In assay [6] the test system is poly (dAdT)2 (DNA, polymer) AT. Put plainly: fluorimetric titration. The settings on record: Na+ (sodium cacodylate, I = 0.05 M); pH 7.0, 1 µM compound; up to 100-fold excess of polynucleotide bases.
Assay [7] concerns poly A-poly U (RNA, polymer) A/U. Put plainly: fluorimetric titration. The following applies: Na+ (sodium cacodylate, I = 0.05 M); pH 7.0, 1 µM compound; up to 100-fold excess of polynucleotide bases.
Assay [8] concerns poly G (RNA, polymer) G. Put plainly: fluorimetric titration. The settings on record: Na+ (sodium cacodylate, I = 0.05 M); pH 7.0, 1 µM compound; up to 100-fold excess of polynucleotide bases.
The test system of assay [9] is poly A (RNA, polymer) A. The experiment in a line: fluorimetric titration. The following applies: Na+ (sodium cacodylate, I = 0.05 M); pH 7.0, 1 µM compound; up to 100-fold excess of polynucleotide bases.
For assay [10], the system named is poly U (RNA, polymer) U. Put plainly: fluorimetric titration. The following applies: Na+ (sodium cacodylate, I = 0.05 M); pH 7.0, 1 µM compound; up to 100-fold excess of polynucleotide bases.

Turning to `COC(=O)[C@H](CCCCNC(=O)CCCc1ccc2ccc3cccc4ccc1c2c34)n1cc(Cn2cc3c4c(ncnc42)Nc2ncccc2-3)nn1`, the binding result in [1] (emission change too small to fit, authors state binding not supported) was “no”. For the same compound, the “log Ks” value was determined as 5.7 in assay [2], 5.2 in assay [3] and 4.7 in assay [4].
As to `COC(=O)[C@H](CCCCNC(=O)c1ccc2ccc3cccc4ccc1c2c34)n1cc(Cn2cc3c4c(ncnc42)Nc2ncccc2-3)nn1`, the “log Ks” value in [2] is listed as 5.0; in assay [5], 5.5.
Consider `NCCCC[C@@H](C(=O)O)n1cc(Cn2cc3c4c(ncnc42)Nc2ncccc2-3)nn1`, for which the binding result in assay [6], in [7], in assay [8], in assay [9], in assay [1] (up to 100-fold excess of polynucleotide bases) and in [10] was “no” each time.

The record behind these values is PMC7248712 (2020).
